Source: US9408839B2, “Antipsychotic treatment based on DRD2 or ANKK1 SNP genotype” (Vanda Pharmaceuticals, Inc., priority 2009, dated 2016)

Key:
schizophrenic patients = details: cited from earlier work; for time to respond to antipsychotics, -141C Del allele carriers versus -141C Ins allele carriers: rs1799732 SNP; for time to respond to antipsychotics, -141C Del allele carriers versus -141C Ins allele carriers / improvement on treatment, C/C genotype versus non-C/C genotype: schizophrenic patients; for improvement on treatment, C/C genotype versus non-C/C genotype: rs6275 SNP
[1] = tested on: patients with an acute exacerbation of schizophrenia; assay: Phase III clinical trial of iloperidone, change from baseline in PANSS-T by DRD2/ANKK1 SNP genotype; format: in vivo, human; details: iloperidone 24 mg/d; for PANSS-T mean change: day 14, white patients; for mean change in PANSS-T: day 14, white subpopulation
Procedure: The clinical trial evaluated the efficacy of iloperidone in treating patients with diagnosed schizophrenia. The study, its results, and the inferences drawn therefrom are described below.
A four-week, randomized, double-blind, placebo- and ziprasidone-controlled, multicenter inpatient phase III clinical trial of iloperidone was conducted, including 409 individuals, to assess the efficacy of iloperidone, as measured by changes in the Positive and Negative Syndrome Scale Total (PANSS-T).
Patients, all diagnosed with an acute exacerbation of schizophrenia, were randomly assigned to one of three groups. A first group (n=218) received 24 mg/d (12 mg bid) of iloperidone, a second group (n=103) received 160 mg/d (80 mg bid) ziprasidone, and a third group (n=105) received a placebo. Efficacy was measured by a change from baseline in PANSS-T score.

## CN(C)CCCN1c2ccccc2Sc2ccc(Cl)cc21 [chlorpromazine]
Schizophrenic patients
  time to respond to antipsychotics, -141C Del allele carriers versus -141C Ins allele carriers: significantly longer time to respond

## O=C(CCCN1CCC(O)(c2ccc(Cl)cc2)CC1)c1ccc(F)cc1 [haloperidol]
Schizophrenic patients
  improvement on treatment, C/C genotype versus non-C/C genotype: greater improvement

## COc1cc(C(C)=O)ccc1OCCCN1CCC(c2noc3cc(F)ccc23)CC1 [iloperidone, 1-[4-[3-[4-(6-flouro-1,2-benzisoxazol-3-yl)-1-piperidinyl]propoxy]-3-methoxyphenyl]ethanone]
[1]; rs2283265 G/T genotype
  PANSS-T mean change: −2.4 (±3.0)
[1]; rs2283265 non-G/T genotype
  PANSS-T mean change: −11.8 (±2.0)
[1]; rs1800497 (Taq1A) A1/A2 patients
  mean change in PANSS-T: −2.1 (±2.7)
[1]; rs1800497 (Taq1A) non-A1/A2 patients
  mean change in PANSS-T: −12.7 (±2.1)

## Cc1nc2n(c(=O)c1CCN1CCC(c3noc4cc(F)ccc34)CC1)CCCC2 [risperidol]
Schizophrenic patients
  improvement on treatment, C/C genotype versus non-C/C genotype: greater improvement

## Cc1nc2n(c(=O)c1CCN1CCC(c3noc4cc(F)ccc34)CC1)CCCC2 [risperidone]
Schizophrenic patients
  time to respond to antipsychotics, -141C Del allele carriers versus -141C Ins allele carriers: significantly longer time to respond
Schizophrenic patients; rs1799978 SNP, some patients
  response to treatment, -241A allele carriers versus -241G allele carriers: greater response
